Measured values published in patent US4472424A, “Esters of 2-thenoylmercaptopropionylglycine with substituted hydroxybenzenes, process for their preparation and pharmaceutical compositions containing same” (Sigma-Tau Industrie Farmaceutiche Riunite S.p.A., priority 1981, dated 1984).

Legend:
[1] = system: cough-inducing irritation; experiment: Antitussive activity (citric acid aerosol induced cough); format: in vivo, guinea pig; conditions: 200 mg/Kg orally, one hour before test; for Number of coughs after treatment: 10 minutes exposure to 10% citric acid aerosol; for % Inhibition of coughs: before vs. after treatment
Method: The cough-inducing irritation was studied in guinea pigs by exposing the experimental animals to an environment wherein a 10% citric acid solution was atomized by an aerosol device kept at a steady pressure with compressed air. The experimental animals were placed in a glass-walled chamber which was connected to an electrical recording apparatus suitable for counting coughs.
The period of exposure to the cough-inducing aerosol was 10 minutes. The experimental animals were subjected to a control test seven days before they were orally administered 200 mg/Kg of the compounds.

[2] = Mucolytic activity in vitro (thromboelastograph, Morandini et al.); design: species or system human; conditions: 1 ml of a 10% solution of test compound
Method: The tests were carried out in vitro by using the method disclosed by Morandini et al. (Lotta contro 1a tubercolosi 47, n. 4, 1977). A thromboelastograph was used to follow the variations induced by the compounds of general formula (I) and acetylcysteine on the rheological properties of human sputum.

bronchial secretion = experiment: Expectorant activity (bronchial secretion in anesthetized rabbits, Perry et al.); format: in vivo, rabbit; conditions: 20 to 40 mg
Method: The tests were carried out on male rabbits, weighing 2-3 Kg, anesthetized with ethyl urethane, by following the method disclosed by Perry et al. (J. Pharm. Exp. Ther. 73, 65, 1941).
Each cannula was connected to a feeding device which delivered a steady flow-rate of pre-heated air (36°-38° C.) at constant humidity (80%). At the lower end of each cannula, a graduated cylinder was fitted, wherein the bronchial secretion was collected. All of the animals breathed spontaneously and consequently they self-regulated the air intake suitable for normal respiration. After an hour following cannula insertion, the animals were administered orally (by stomach tube) the compounds of general formula (I) dissolved in distilled water at doses comprised between 20 and 40 mg. Each dose of drug was administered to 5 animals. The control animals (8) were given water only. The amount of secretion was determined after 1, 2 and 4 hours from administration.

[3] = Acute toxicity (LD50, Weil method), e.p. administration in mouse; conditions: in vivo, ip, Weil method N = 4 K = 4
From the text: LD50 of the compounds of formula (I) assessed with the Weil method ("Tables for convenient calculation of median effective dose (LD50 or ED 50) and instructions in their use", Biometrics, 249-253, 1952), by e.p. administration in mouse is shown in Table 1.

[4] = 1 hour after oral administration
[5] = 2 hours after oral administration
[6] = 4 hours after oral administration

SMILES	Number of coughs after treatment [1]	% Inhibition of coughs [1]	Percentage drop ± s.e. of the tracing versus maximum peak (mucolytic activity index) ([2]; dilution 1/30)	Percentage drop ± s.e. of the tracing versus maximum peak (mucolytic activity index) ([2]; dilution 1/60)	Percentage variations ± s.e. of bronchial secretion versus basal values (bronchial secretion; [4])	Percentage variations ± s.e. of bronchial secretion versus basal values (bronchial secretion; [5])	Percentage variations ± s.e. of bronchial secretion versus basal values (bronchial secretion; [6])	LD50 [3]
CCCCOC(=O)c1ccccc1OC(=O)CNC(=O)C(C)SC(=O)c1cccs1 (centres unmarked) [(6), butyl o-(2-thenoylmercaptopropionylglyciloxy) benzoate]	25 coughs	49%	75%	55%	+0.5 ± 0.04%	+1.0 ± 0.06%	+1.9 ± 0.04%	1800 mg/kg
CC(=O)N[C@@H](CS)C(=O)O [Acetylcysteine, acetylcysteine, reference compound]			75%	22%				
CCCOC(=O)c1ccccc1OC(=O)CNC(=O)C(C)SC(=O)c1cccs1 (centres unmarked) [(5), propyl o-(2-thenoylmercaptopropionylglyciloxy) benzoate]	28 coughs	49%	78%	57%	+0.9 ± 0.06%	+1.7 ± 0.05%	+3.2 ± 0.06%	2080 mg/kg
CC(=O)Nc1ccc(OC(=O)CNC(=O)C(C)SC(=O)c2cccs2)cc1 (centres unmarked) [(2), p-(2-thenoylmercaptopropionylglyciloxy) acetamido benzene]	30 coughs	46%	86%	65%	+0.8 ± 0.03%	+1.2 ± 0.04%	+2.5 ± 0.07%	1930 mg/kg
CCOC(=O)c1ccccc1OC(=O)CNC(=O)C(C)SC(=O)c1cccs1 (centres unmarked) [(4), ethyl o-(2-thenoylmercaptopropionylglyciloxy) benzoate]	30 coughs	52%	82%	60%	+0.8 ± 0.03%	+1.9 ± 0.06%	+3.0 ± 0.04%	2150 mg/kg
COC(=O)c1ccccc1OC(=O)CNC(=O)C(C)SC(=O)c1cccs1 (centres unmarked) [(3), methyl o-(2-thenoylmercaptopropionylglyciloxy) benzoate]	31 coughs	49%	85%	65%	+0.3 ± 0.05%	+0.9 ± 0.05%	+1.4 ± 0.08%	1780 mg/kg
CCCOC(=O)c1ccc(OC(=O)CNC(=O)C(C)SC(=O)c2cccs2)cc1 (centres unmarked) [(1), propyl p-(2-thenoylmercaptopropionylglyciloxy) benzoate]	39 coughs	37%	75%	60%	+0.9 ± 0.05%	+2.1 ± 0.01%	+3.8 ± 0.06%	1580 mg/kg
